Results: patent US6806293B1, “Use of pheromone compounds having MAP kinase modulating activity” (Darley Pharmaceuticals LTD, priority 2001, dated 2004)

Columns and labels:
[1] = tested on: MAP kinase; assay: Screening method for pheromone compounds having MAP kinase modulating activity in Rat1 cells (Example 1); assay type: cell-based, rat; conditions: observed on screening in accordance with the described methods
Protocol: In a preferred screening method, as set forth in Example 1 herein, pheromone compounds with MAP kinase modulating activity are identified using Rat1 cells grown in cell culture dishes. Samples of the pheromone compound are added to respective cell culture dishes containing the Rat1 cells and incubated. A control group is established by treating a separate group of cell culture dishes containing Rat1 cells with the same solutions absent the pheromone compound. After incubation, the Rat1 cells are stimulated with epidermal growth factor to stimulate MAP kinase activation in the Rat1 cells. Upon completion of the incubation period, the Rat1 cells in each of the culture dishes are separately processed to obtain the corresponding cell extract containing proteins indicative of active kinase. The proteins are then separated using known electrophoresis techniques and prepared as a blot for the detection and measurement of active MAP kinase. The resulting blot is analyzed using densitometric techniques to measure the corresponding activity of the tested pheromone compound.
Rat1 cells were grown in 6 cm cell culture dishes in a tissue culture incubator at 37° C. in an atmosphere containing 5% carbon dioxide. The cells were serum-starved for 16 hours. […] A control group was established by adding to the remaining cell culture dishes the same solution absent the pheromone compound. After the 15 minute period, the Rat1 cells were stimulated with epidermal growth factor (EGF) (50 ng/ml) for about 15 minutes for one group and 30 minutes for a second group.
The Rat1 cells were then treated to remove the corresponding incubation medium and then the cells were rinsed twice each with 5 ml of cold phosphate buffered saline (PBS) and once with 5 ml of cold homogenizing buffer (Buffer H) containing 50 mM of β-glycerophosphate, (pH 7.3), 1.5 mM of ethylenebis(oxyethylenenitrilo)tetraacetic acid (EGTA), 1 mM of ethylenediaminetetraacetic acid (EDTA), 1 mM of dithiothreitol (DTT), 0.1 mM sodium orthovanadate, 1 mM benzamidine, 10 μg/ml of aprotinin, 10 μg/ml of leupeptin, and 2 μg/ml of pepstatin (2 μg/ml)+1% Triton-X-100.
The cells were harvested and lysed with 350 μl of cold Buffer H. Alternatively, the cells may be harvested and lysed with radioimmunoprotein assay buffer (RIPA buffer). Each extract was then centrifuged at 15,000×g for 15 minutes at 4° C. The resulting supernatants contained the protein extracts to be examined and were transferred to fresh, pre-cooled test tubes and kept on ice.
The proteins were then separated by sodium dodecyl sulfate-polyacrylamide gel electrophoresis (SDS-PAGE) and transferred, by western blotting, onto a nitrocellulose membrane.
The blot produced above was blocked with 2% bovine serum albumin (BSA) in Tris-buffered saline/Tween-20 (TBST) for 1 hour. The blot was then incubated with a monoclonal anti-active MAP kinase antibody obtained from Sigma, and diluted according to the manufacturer recommendations. The blot was incubated overnight at 4° C. Alternatively, the blot may also be incubated for about 30 minutes at 37° C., or from one to two hours at room temperature.
The treated blot was placed in a flat container and washed at least 3 times for 15 minutes each with TBST buffer at room temperature. The blot was then incubated with alkaline phosphatase-conjugated goat anti-mouse IgG obtained from Jackson Laboratories, diluted according to the manufacturer recommendations in TBST buffer for 45 minutes at room temperature. The blot was then subjected to a second washing, repeated 3 times, for 10 minutes each with TBST. An alkaline phosphatase (AP) detection technique was utilized to detect and measure the presence of active MAP kinase. Enhanced MAP kinase activity as compared to control is evidence that the compound is a MAP kinase activator. Lowered MAP kinase activity as compared to control is evidence that the compound is a MAP kinase inhibitor. […]

[2] = tested on: MAP kinase; assay: MAP kinase activation in Rat1 cells compared to EGF and TPA (Example 3, western blot, densitometry); assay type: cell-based, rat; conditions: 15 minutes; for Activity (% of EGF-activation), Conc. 1 / Activity (% of TPA-activation), Conc. 1: compound 1 × 10^-4 M; for Activity (% of EGF-activation), Conc. 1 / Activity (% of EGF-activation), Conc. 2: relative to EGF 50 ng/ml; for Activity (% of TPA-activation), Conc. 1 / Activity (% of TPA-activation), Conc. 2: relative to TPA 100 nM; for Activity (% of EGF-activation), Conc. 2 / Activity (% of TPA-activation), Conc. 2: compound 1 × 10^-5 M
Protocol: Rat1 cells were grown in 6 cm cell culture dishes in a tissue culture incubator at 37° C. in an atmosphere containing 5% carbon dioxide. The Rat1 cells were serum-starved for 16 hours. Three groups of the Rat1 cells were then treated for 15 minutes with either epidermal growth factor (EGF) (50 ng/ml), 12-O-tetradecanoylphorbol-13-acetate (TPA) (100nM), or with one of the pheromone compounds at one of two concentrations identified in Table 2 below. EGF and TPA are compounds which are known to activate MAP kinase and therefore serve as a basis of comparing the relative activity of the pheromone compounds. The cells were then washed with phosphate buffered saline (PBS) and lysed with radioimmunoprotein assay (RIPA) buffer. The proteins were then separated by sodium dodecyl sulfate-polyacrylamide gel electrophoresis (SDS-PAGE), transferred onto a nitrocellulose membrane and probed with anti-MAPK antibodies to produce a blot. The MAP kinase activity for the EGF-treated cells, the TPA-treated cells and the pheromone compound-treated cells, was analyzed and calculated using densitometric analysis. The results shown in Table 2 are presented as percent of EGF-stimulated active MAP kinase levels or TPA-stimulated active MAP kinase levels, respectively.

## CCCCCC(C)=O [2-Heptanone]
[1]
  mitogen-activating protein kinase modulation activity (activator or inhibitor): activators
[2]
  Activity (% of EGF-activation), Conc. 1: 5%
  Activity (% of TPA-activation), Conc. 1: 14%
  Activity (% of EGF-activation), Conc. 2: 7%
  Activity (% of TPA-activation), Conc. 2: 50%

## C=CC(C)(C)O [2-methyl-3-butene-2-ol]
[1]
  mitogen-activating protein kinase modulation activity (activator or inhibitor): activators
[2]
  Activity (% of EGF-activation), Conc. 1: 5%
  Activity (% of TPA-activation), Conc. 1: 35%

## CCC(C)CCCC/C=C\CCCCCCC=O (stereo not drawn) [14-methyl-Cis-8-Hexadecenal]
[1]
  mitogen-activating protein kinase modulation activity (activator or inhibitor): activators
[2]
  Activity (% of EGF-activation), Conc. 1: 10%
  Activity (% of TPA-activation), Conc. 1: 75%
  Activity (% of EGF-activation), Conc. 2: 3%
  Activity (% of TPA-activation), Conc. 2: 15%

## CCCCCCCCCC/C=C\CCCCC(C)C [Cis-2-methyl-7-Octadecene]
[1]
  mitogen-activating protein kinase modulation activity (activator or inhibitor): activators
[2]
  Activity (% of EGF-activation), Conc. 1: 8%
  Activity (% of TPA-activation), Conc. 1: 60%
  Activity (% of EGF-activation), Conc. 2: 8%
  Activity (% of TPA-activation), Conc. 2: 45%

## CCCCCCCC/C=C\CCCOC(C)=O [Cis-4-Tridecen-1-yl-acetate]
[1]
  mitogen-activating protein kinase modulation activity (activator or inhibitor): activators
[2]
  Activity (% of EGF-activation), Conc. 1: 3%
  Activity (% of TPA-activation), Conc. 1: 7%
  Activity (% of EGF-activation), Conc. 2: 5%
  Activity (% of TPA-activation), Conc. 2: 30%

## CCCC/C=C\CCCCCCOC(C)=O [Cis-7-Dodecenyl-acetate]
[1]
  mitogen-activating protein kinase modulation activity (activator or inhibitor): activators
[2]
  Activity (% of EGF-activation), Conc. 1: 7%
  Activity (% of TPA-activation), Conc. 1: 20%
  Activity (% of EGF-activation), Conc. 2: 8%
  Activity (% of TPA-activation), Conc. 2: 17%

## CCCCCC/C=C\CCCCCC=O [Cis-7-Tetradecenal]
[1]
  mitogen-activating protein kinase modulation activity (activator or inhibitor): activators
[2]
  Activity (% of EGF-activation), Conc. 1: 7%
  Activity (% of TPA-activation), Conc. 1: 20%
  Activity (% of EGF-activation), Conc. 2: 5%
  Activity (% of TPA-activation), Conc. 2: 10%

## CCCCCC/C=C\CCCCCCO [Cis-7-Tetradecenol]
[1]
  mitogen-activating protein kinase modulation activity (activator or inhibitor): activators
[2]
  Activity (% of EGF-activation), Conc. 1: 9%
  Activity (% of TPA-activation), Conc. 1: 30%
  Activity (% of EGF-activation), Conc. 2: 9%
  Activity (% of TPA-activation), Conc. 2: 25%

## CCCCCC/C=C\CCCCCCOC(C)=O [Cis-7-Tetradecenyl-acetate]
[1]
  mitogen-activating protein kinase modulation activity (activator or inhibitor): activators
[2]
  Activity (% of EGF-activation), Conc. 1: 8%
  Activity (% of TPA-activation), Conc. 1: 21%
  Activity (% of EGF-activation), Conc. 2: 10%
  Activity (% of TPA-activation), Conc. 2: 80%

## CCCCC/C=C\CCCCCCO [Cis-7-Tridecenol]
[1]
  mitogen-activating protein kinase modulation activity (activator or inhibitor): activators
[2]
  Activity (% of EGF-activation), Conc. 1: 12%
  Activity (% of TPA-activation), Conc. 1: 80%
  Activity (% of EGF-activation), Conc. 2: 9%
  Activity (% of TPA-activation), Conc. 2: 60%

## CCCCCCCC/C=C\CCCCCCCCCCC [Cis-9-Heneicosene]
[1]
  mitogen-activating protein kinase modulation activity (activator or inhibitor): activators
[2]
  Activity (% of EGF-activation), Conc. 2: 3%
  Activity (% of TPA-activation), Conc. 2: 22%

## CCCCC/C=C\CCCCCCCCO [Cis-9-Pentadecenol]
[1]
  mitogen-activating protein kinase modulation activity (activator or inhibitor): activators
[2]
  Activity (% of EGF-activation), Conc. 1: 14%
  Activity (% of TPA-activation), Conc. 1: 95%
  Activity (% of EGF-activation), Conc. 2: 6%
  Activity (% of TPA-activation), Conc. 2: 30%

## CCCC/C=C\CCCCCCCCO [Cis-9-Tetradecenol]
[1]
  mitogen-activating protein kinase modulation activity (activator or inhibitor): activators
[2]
  Activity (% of EGF-activation), Conc. 1: 15%
  Activity (% of TPA-activation), Conc. 1: 105%
  Activity (% of EGF-activation), Conc. 2: 8%
  Activity (% of TPA-activation), Conc. 2: 35%

## CCCC/C=C\CCCCCCCCOC=O [Cis-9-Tetradecenyl-formate]
[1]
  mitogen-activating protein kinase modulation activity (activator or inhibitor): activators
[2]
  Activity (% of EGF-activation), Conc. 1: 12%
  Activity (% of TPA-activation), Conc. 1: 90%
  Activity (% of EGF-activation), Conc. 2: 12%
  Activity (% of TPA-activation), Conc. 2: 55%

## CCCC/C=C\CCCCCCCCC/C=C/C=O [Trans-2,Cis-13-Octadecadienal]
[1]
  mitogen-activating protein kinase modulation activity (activator or inhibitor): activators
[2]
  Activity (% of EGF-activation), Conc. 1: 4%
  Activity (% of TPA-activation), Conc. 1: 30%
  Activity (% of EGF-activation), Conc. 2: 8%
  Activity (% of TPA-activation), Conc. 2: 40%

## CC/C=C\C/C=C\CCC/C=C/CCO [Trans-3,Cis-8,Cis-11-Tetradecatrienol]
[1]
  mitogen-activating protein kinase modulation activity (activator or inhibitor): activators
[2]
  Activity (% of EGF-activation), Conc. 1: 6%
  Activity (% of TPA-activation), Conc. 1: 10%
  Activity (% of EGF-activation), Conc. 2: 5%
  Activity (% of TPA-activation), Conc. 2: 50%

## CCCC/C=C/CCCCOC(C)=O [Trans-5-decenyl-acetate]
[1]
  mitogen-activating protein kinase modulation activity (activator or inhibitor): activators
[2]
  Activity (% of EGF-activation), Conc. 1: 1%
  Activity (% of EGF-activation), Conc. 2: 4%
  Activity (% of TPA-activation), Conc. 2: 18%

## C/C=C/CCCCCCCCCO [Trans-10-Dodecenol]
[1]
  mitogen-activating protein kinase modulation activity (activator or inhibitor): activators
[2]
  Activity (% of EGF-activation), Conc. 1: 2%
  Activity (% of TPA-activation), Conc. 1: 10%
  Activity (% of EGF-activation), Conc. 2: 10%
  Activity (% of TPA-activation), Conc. 2: 60%

## CCCCC/C=C\CCCC(=O)CCCCCCCCCC [cis-6-heneicosene-11-one]
[1]
  mitogen-activating protein kinase modulation activity (activator or inhibitor): activators

## Cis-9-Undecenyl-acetate
[1]
  mitogen-activating protein kinase modulation activity (activator or inhibitor): activators
[2]
  Activity (% of EGF-activation), Conc. 1: 18%
  Activity (% of TPA-activation), Conc. 1: 115%
  Activity (% of EGF-activation), Conc. 2: 3%
  Activity (% of TPA-activation), Conc. 2: 10%
